The text below walks through data of patent publication US20100113445A1, “Chemical Compounds” (SMITHKLINE BEECHAM CORPORATION, priority 2007, published 2010).

Counter-ions that a name gives are not always drawn.

The target in the experiment is T1, Wee1 (Homo sapiens, UniProt P30291).
T1 construct: endogenous in cells; host or cells: HeLa cells
Briefly: Cell assay for Wee1 inhibitory activity (cell-based ELISA of cdc2 phosphorylation). As to conditions: aphidicolin-synchronized Hela cells in G2-M; phospho-cdc2(Tyr15) sandwich ELISA; read-out: pIC50, cell assay for Wee1 inhibitory activity (converted). The text has this:
Cell Assay for Wee1 Inhibitory Activity
Wee1 inhibitory activity can be measured using a cell-based ELISA assay.
Hela cells are synchronized using aphidicolin, which blocks the entry of cells into S-phase. Cells in G2-M transition phase are then obtained by releasing the cells from aphidicolin treatment for approximately 7-9 hrs. The phosphorylation level of the Wee1 target cdc2 may then be measured by sandwich ELISA using an anti-cdc2 antibody and an anti-phospho-cdc2(Tyr15) antibody. This cell assay was used to calculate a pIC50 for the compounds described in Examples 3, 4, 6-8, 10-12, 15, 17, 18, 21, 23, 25-27, 33, 35, 39, 43, 44, 51, 63, and 99.
On the technique in general: In an ELISA, binding on a coated surface is turned into a signal by an enzyme label.

T1 sequence (P30291 whole entry): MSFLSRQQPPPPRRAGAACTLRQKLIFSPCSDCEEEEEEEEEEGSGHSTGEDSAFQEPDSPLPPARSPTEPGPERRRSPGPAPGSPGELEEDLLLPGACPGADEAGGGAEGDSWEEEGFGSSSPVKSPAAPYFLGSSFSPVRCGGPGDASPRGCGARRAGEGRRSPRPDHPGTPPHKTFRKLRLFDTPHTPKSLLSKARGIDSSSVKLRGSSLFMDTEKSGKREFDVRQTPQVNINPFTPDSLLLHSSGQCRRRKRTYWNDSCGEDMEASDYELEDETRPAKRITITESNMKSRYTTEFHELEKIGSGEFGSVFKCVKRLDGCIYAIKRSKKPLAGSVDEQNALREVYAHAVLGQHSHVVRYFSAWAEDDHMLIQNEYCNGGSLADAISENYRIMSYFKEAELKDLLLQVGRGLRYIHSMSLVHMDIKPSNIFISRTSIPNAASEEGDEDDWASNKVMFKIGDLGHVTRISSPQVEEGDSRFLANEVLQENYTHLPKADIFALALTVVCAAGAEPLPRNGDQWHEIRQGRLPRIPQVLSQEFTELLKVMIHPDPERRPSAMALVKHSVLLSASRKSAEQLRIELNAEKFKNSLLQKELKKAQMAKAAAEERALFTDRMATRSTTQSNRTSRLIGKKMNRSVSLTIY

In the case of `CCN(CC)CCOc1ccc(Nc2ncc(-c3cn[nH]c3)c(Nc3ccccc3OC)n2)cc1` [Example 3, N^2-(4-{[2-(diethylamino)ethyl]oxy}phenyl)-N^4-[2-(methyloxy)phenyl]-5-(1H-pyrazol-4-yl)-2,4-pyrimidinediamine], the IC50 was at most 10 µM.

As to `CCN(CC)CCOc1ccc(Nc2ncc(-c3ccc4[nH]ncc4c3)c(Nc3ccccc3OC)n2)cc1` [Example 4, N^2-(4-[{2-(diethylamino)ethyl]oxy}phenyl)-5-(1H-indazol-5-yl)-N^4-[2-(methyloxy)phenyl]-2,4-pyrimidinediamine], the IC50 was at most 10 µM.

`CCN(CC)CCOc1ccc(Nc2ncc(-c3cncc(OC)c3)c(Nc3ccccc3OC)n2)cc1` [Example 6, N^2-(4-{[2-(diethylamino)ethyl]oxy}phenyl)-N^4-[2-(methyloxy)phenyl]-5-[5-(methyloxy)-3-pyridinyl]-2,4-pyrimidinediamine]: the IC50 is at most 10 µM.

Regarding `CCN(CC)CCOc1ccc(Nc2ncc(-c3ccc(O)cc3)c(Nc3ccccc3OC)n2)cc1` [Example 7], the IC50 was at most 10 µM.

Consider `CCN(CC)CCOc1ccc(Nc2ncc(-c3cncnc3)c(Nc3ccccc3OC)n2)cc1` [Example 8, N^2-(4-{[2-(diethylamino)ethyl]oxy}phenyl)-N^4-[2-(methyloxy)phenyl]-5,5′-bipyrimidine-2,4-diamine], for which the IC50 is at most 10 µM.

On to `CCN(CC)CCOc1ccc(Nc2ncc(-c3cnc4ccccc4c3)c(Nc3ccccc3OC)n2)cc1` [Example 10, N^2-(4-{[2-(diethylamino)ethyl]oxy}phenyl)-N^4-[2-(methyloxy)phenyl]-5-(3-quinolinyl)-2,4-pyrimidinediamine], for which the IC50 is at most 10 µM.

As for `CCN(CC)CCOc1ccc(Nc2ncc(-c3ccccc3Cl)c(Nc3ccccc3OC)n2)cc1` [Example 11, 5-(2-chlorophenyl)-N^2-(4-{[2-(diethylamino)ethyl]oxy}phenyl)-N^4-[2-(methyloxy)phenyl]-2,4-pyrimidinediamine], the IC50 was at most 10 µM.

For the compound `CCN(CC)CCOc1ccc(Nc2ncc(-c3cnn(Cc4ccccc4)c3)c(Nc3ccccc3OC)n2)cc1` [Example 12, N^2-(4-{[2-(diethylamino)ethyl]oxy}phenyl)-N^4-[2-(methyloxy)phenyl]-5-[1-(phenylmethyl)-1H-pyrazol-4-yl]-2,4-pyrimidinediamine], the IC50 was at most 10 µM.

For `CCN(CC)CCOc1ccc(Nc2ncc(-c3cccc(CO)c3)c(Nc3ccccc3OC)n2)cc1` [Example 21, [3-(2-[(4-{[2-(diethylamino)ethyl]oxy}phenyl)amino]-4-{[2-(methyloxy)phenyl]amino}-5-pyrimidinyl)phenyl]methanol], the IC50 was at most 10 µM.

For the compound `CCC(C)NC(=O)c1ccccc1Nc1nc(Nc2ccc(Cn3cncn3)cc2)ncc1-c1cn[nH]c1` (stereo not drawn) [Example 25, N-(1-methylpropyl)-2-[(5-(1H-pyrazol-4-yl)-2-{[4-(1H-1,2,4-triazol-1-ylmethyl)phenyl]amino}-4-pyrimidinyl)amino]benzamide], the IC50 was at most 10 µM.

As for `Fc1cccc(CCNc2nc(Nc3ccc(Cn4cncn4)cc3)ncc2-c2cncnc2)c1` [Example 26, N^4-[2-(3-fluorophenyl)ethyl]-N^2-[4-(1H-1,2,4-triazol-1-ylmethyl)phenyl]-5,5′-bipyrimidine-2,4-diamine], the IC50 is at most 10 µM.

Regarding `COc1ccccc1Nc1nc(Nc2ccc(Cn3cncn3)cc2)ncc1-c1cncnc1` [Example 33, N^4-[2-(methyloxy)phenyl]-N^2-[4-(1H-1,2,4-triazol-1-ylmethyl)phenyl]-5,5′-bipyrimidine-2,4-diamine], the IC50 was at most 10 µM.

Consider `CCN(CC)CCOc1ccc(Nc2ncc(-c3cccc(N)c3)c(Nc3ccccc3OC)n2)cc1` [Example 35, 5-(3-aminophenyl)-N^2-(4-{[2-(diethylamino)ethyl]oxy}phenyl)-N^4-[2-(methyloxy)phenyl]-2,4-pyrimidinediamine], for which the IC50 was at most 10 µM.

As for `CCN(CC)CCOC(=O)Nc1ccc(Nc2ncc(-c3cncnc3)c(Nc3ccccc3OC)n2)cc1` [Example 43, 2-(diethylamino)ethyl {4-[(4-{[2-(methyloxy)phenyl]amino}-5,5′-bipyrimidin-2-yl)amino]phenyl}carbamate], the IC50 was at most 10 µM.

Turning to `CCN(CC)CCOc1ccc(Nc2ncc(-c3cncnc3)c(Nc3cccc(C#N)c3)n2)cc1` [Example 44, 3-({2-[(4-{[2-(diethylamino)ethyl]oxy}phenyl)amino]-5,5′-bipyrimidin-4-yl}amino)benzonitrile], the IC50 is at most 10 µM.

Take `Cc1ncc(-c2cccc(Nc3nc(Nc4ccc(Cn5cncn5)cc4)ncc3-c3cncnc3)c2)s1` [Example 51, N^4-[3-(2-methyl-1,3-thiazol-5-yl)phenyl]-N^2-[4-(1H-1,2,4-triazol-1-ylmethyl)phenyl]-5,5′-bipyrimidine-2,4-diamine]: the IC50 is at most 10 µM.

With `CCN(CC)CCOc1ccc(Nc2ncc(-c3cccc(C(N)=O)c3)c(Nc3ccccc3OC)n2)cc1` [Example 63, 3-(2-[(4-{[2-(diethylamino)ethyl]oxy}phenyl)amino]-4-{[2-(methyloxy)phenyl]amino}-5-pyrimidinyl)benzamide], the IC50 is at most 10 µM.

Take `COc1ccccc1Nc1nc(Nc2cccc(OCCN(C)C)c2)ncc1-c1cn[nH]c1` [Example 99, N^2-(3-{[2-(dimethylamino)ethyl]oxy}phenyl)-N^4-[2-(methyloxy)phenyl]-5-(1H-pyrazol-4-yl)-2,4-pyrimidinediamine hydrochloride]: the IC50 is at most 10 µM.
